# Experimental data taken from patent US20260091015A1, “TREATING IRON DEFICIENCY WITH FERRIC CARBOXYMALTOSE” (PHARMACOSMOS HOLDING A/S, priority 2018, published 2026).
# What was measured:
# [1] = Fractional urinary phosphate excretion, spot urine, trials IDA-04/IDA-05; format: in vivo, human; settings: FCM vs IIM
# Procedure: The term “fractionary urinary excretion of phosphate (FEPi)” (sometimes abbreviated FEPO4) is a measure of how much phosphate is not re-absorbed from the pre-urine in the kidneys, i.e., how much phosphate ends up in the urine as a proportion of how much phosphate the subject has in the blood. It is calculated like this: FEPi=[PO4 (Urine)*Creatinine (Serum)]/[PO4 (Serum)*Creatinine (Urine)]*100. An FEPi of 10-20% (0.1-0.2 fraction) is usually considered to be normal; an FEPi <10% (<0.1 fraction) is usually considered to be low; and an FEPi >20% (>0.2 fraction) is usually considered to be high. Phosphate in urine is measured using the same methodology as for serum.
# The trial was a randomized, open-label, comparative trial. Subjects with Iron Deficiency Anaemia (IDA) were randomized 1:1 to one treatment course of one of the following treatments: • Group A: iron isomaltoside 1000 (Monofer®, Pharmacosmos, Holbok, Denmark, termed iron isomaltoside in the following), 1000 mg at baseline • Group B: ferric carboxymaltose (Ferinject®/Injectafer®, Vifor Inc, Switzerland), 750 mg at baseline and day 7, cumulative dose: 1500 mg […]
# human intact FGF23 = experiment: Intact FGF23 (iFGF23) over time, two-site ELISA, trials IDA-04/IDA-05; format: in vivo
# Procedure: The trial was a randomized, open-label, comparative trial. Subjects with Iron Deficiency Anaemia (IDA) were randomized 1:1 to one treatment course of one of the following treatments: • Group A: iron isomaltoside 1000 (Monofer®, Pharmacosmos, Holbok, Denmark, termed iron isomaltoside in the following), 1000 mg at baseline • Group B: ferric carboxymaltose (Ferinject®/Injectafer®, Vifor Inc, Switzerland), 750 mg at baseline and day 7, cumulative dose: 1500 mg
# The secondary safety endpoints were the following: • Incidence of s-phosphate below 1.0 mg/dL at any time from baseline to day 35 • Time with hypophosphatemia (i.e. time with s-phosphate <2.0 mg/dL) from baseline to day 35 • Proportion of subjects with hypophosphatemia at day 35 • Absolute [Δ] and relative [%] changes in s-phosphate from baseline to 1, 7, 8, 14, 21, and 35 • Fractional phosphate urinary excretion at 1, 7, 8, 14, 21, and 35 • Change in iFGF23, cFGF23, vitamin D (25, 1,25, 24,25), PTH, and ionized calcium from baseline to 1, 7, 8, 14, 21, and 35 • Type and incidence of AEs • Serious or severe hypersensitivity reaction starting on or after the first dose of randomized treatment (i.e. treatment emergent). The hypersensitivity terms were defined as standardised Medical Dictionary for Regulatory Activities query (SMQ) terms. […]
# The following safety laboratory assessments were analysed: • S-phosphate: inorganic phosphorous forms an ammonium phosphomolybdate complex having the formula (NH4)3[PO4](MoO3)12 with ammonium molybdate in the presence of sulfuric acid. The complex was determined photometrically in the ultraviolet region (340 nm) of the spectrum using the Roche Modular and Cobas Analyzer. • iFGF23 and cFGF23: the human intact FGF23 was measured by the 2nd generation Elisa kit manufactured by Immonotropics, Inc, San Clemente, CA. […] The human C-terminal FGF23 was measured by the Elisa kit manufactured by Immonotropics, Inc, San Clemente, CA. […] After evaporation under nitrogen, the residue was reconstituted and analyzed using Liquid Chromatography (LC) with Tandem Mass Spectrometric detection (MS/MS). […] A direct relationship exists between the amount of PTH present in the patient sample and the amount of relative light units (RLUs) detected by the system. • Ionized calcium: Measured by the IL GEM Premier 3500 PAK cartridge. […]
# ionized calcium = experiment: Ionized calcium, ion-selective electrode, trials IDA-04/IDA-05; format: in vivo, human; settings: IDA-04 and IDA-05 combined
# From the text: The term “serum ionized calcium” as used herein refers to the level of calcium ions (Ca^2+) in blood serum as measured using the IL GEM Premier 3500 PAK cartridge. The central component is the sensor card, which provides a low volume, gas tight chamber in which the blood sample is presented to the sensors. The pH and electrolyte sensors are all based on the principle of ion-selective electrodes; that is, an electrical potential can be established across a membrane which is selectively permeable to a specific ion. The pH and electrolyte sensors are polyvinyl chloride (PVC) based ion selective electrodes, consisting of an internal Ag/AgCl reference electrode and internal salt layer. The potentials are measured against the card reference electrode. […]
# The following safety laboratory assessments were analysed: • S-phosphate: inorganic phosphorous forms an ammonium phosphomolybdate complex having the formula (NH4)3[PO4](MoO3)12 with ammonium molybdate in the presence of sulfuric acid. The complex was determined photometrically in the ultraviolet region (340 nm) of the spectrum using the Roche Modular and Cobas Analyzer. • iFGF23 and cFGF23: the human intact FGF23 was measured by the 2nd generation Elisa kit manufactured by Immonotropics, Inc, San Clemente, CA. […] The human C-terminal FGF23 was measured by the Elisa kit manufactured by Immonotropics, Inc, San Clemente, CA. […]
substance,measurement,setting,value
ferric carboxymaltose [FCM],Fractional urinary excretion of phosphate,[1],significantly increased
same,iFGF23 after administration,"human intact FGF23; first administration (750 mg), then gradually declined over days",increased sharply
same,increase in iFGF23 after second dose relative to first dose,human intact FGF23; repeated dosing one week apart,2-3 fold
same,"iFGF23 on the second administration, relative to the initial level","human intact FGF23; second administration (750 mg, day 7)",several fold higher
same,ionized calcium,ionized calcium,decrease
